Measurements from ChEMBL document CHEMBL5291721, “A preclinical secondary pharmacology resource illuminates target-adverse drug reaction associations of marketed drugs” (Nat Commun, 2023).

Key:
[1] = target: T1, Adenosine receptor A1 (Homo sapiens, UniProt P30542)
T1 sequence (P30542 whole entry): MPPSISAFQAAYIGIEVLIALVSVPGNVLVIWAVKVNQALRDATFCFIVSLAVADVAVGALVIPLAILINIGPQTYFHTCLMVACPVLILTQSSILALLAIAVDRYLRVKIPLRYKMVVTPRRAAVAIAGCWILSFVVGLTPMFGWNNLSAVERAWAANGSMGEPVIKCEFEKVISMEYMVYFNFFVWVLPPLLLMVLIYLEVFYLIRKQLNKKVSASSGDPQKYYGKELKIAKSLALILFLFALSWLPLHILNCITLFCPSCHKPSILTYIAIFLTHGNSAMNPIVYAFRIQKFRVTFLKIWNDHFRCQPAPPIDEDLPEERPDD

[2] = target: Glutamate receptor ionotropic, NMDA 1 (Rattus norvegicus, UniProt P35439)
[3] = target: T2, Alpha-1A adrenergic receptor (Homo sapiens, UniProt P35348); assay type: functional, cell-based
T2 sequence (P35348 whole entry): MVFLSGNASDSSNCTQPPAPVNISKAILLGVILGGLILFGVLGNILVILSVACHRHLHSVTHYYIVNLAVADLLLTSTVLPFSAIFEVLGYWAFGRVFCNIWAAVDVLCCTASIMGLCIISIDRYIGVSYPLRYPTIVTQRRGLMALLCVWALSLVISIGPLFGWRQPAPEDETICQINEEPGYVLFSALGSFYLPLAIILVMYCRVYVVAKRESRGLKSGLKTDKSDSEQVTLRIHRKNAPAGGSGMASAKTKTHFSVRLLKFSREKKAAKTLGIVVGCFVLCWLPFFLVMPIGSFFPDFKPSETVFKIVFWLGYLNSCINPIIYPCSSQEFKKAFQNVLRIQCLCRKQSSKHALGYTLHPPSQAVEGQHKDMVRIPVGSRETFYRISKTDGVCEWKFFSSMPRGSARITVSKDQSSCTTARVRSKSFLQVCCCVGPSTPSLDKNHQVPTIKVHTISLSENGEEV

[4] = target: Melanocortin receptor 3 (Homo sapiens, UniProt P41968)
Sequence of Melanocortin receptor 3 (P41968 whole entry): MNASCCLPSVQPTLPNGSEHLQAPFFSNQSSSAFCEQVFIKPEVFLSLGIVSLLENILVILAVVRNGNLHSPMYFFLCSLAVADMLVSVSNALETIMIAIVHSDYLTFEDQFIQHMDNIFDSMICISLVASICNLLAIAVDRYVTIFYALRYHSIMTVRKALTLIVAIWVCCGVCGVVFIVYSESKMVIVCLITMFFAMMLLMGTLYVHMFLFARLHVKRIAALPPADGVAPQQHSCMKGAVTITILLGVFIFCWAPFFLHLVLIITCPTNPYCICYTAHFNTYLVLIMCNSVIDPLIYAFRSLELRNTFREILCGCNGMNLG

[5] = target: T3, Neuropeptide Y receptor type 1 (Homo sapiens, UniProt P25929)
T3 sequence (P25929 whole entry): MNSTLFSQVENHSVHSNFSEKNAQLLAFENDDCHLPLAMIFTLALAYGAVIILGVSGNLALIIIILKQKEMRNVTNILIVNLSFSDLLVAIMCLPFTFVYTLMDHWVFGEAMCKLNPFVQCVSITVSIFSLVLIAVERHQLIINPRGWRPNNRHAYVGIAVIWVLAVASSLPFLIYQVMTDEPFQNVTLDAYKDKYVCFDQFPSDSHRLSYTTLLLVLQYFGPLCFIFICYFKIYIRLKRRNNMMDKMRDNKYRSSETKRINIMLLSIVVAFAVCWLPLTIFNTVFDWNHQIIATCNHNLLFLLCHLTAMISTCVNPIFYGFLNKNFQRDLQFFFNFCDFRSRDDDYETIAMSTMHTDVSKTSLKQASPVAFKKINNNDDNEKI

[6] = target: Sodium-dependent noradrenaline transporter (Homo sapiens, UniProt P23975)
Sequence of Sodium-dependent noradrenaline transporter (P23975 whole entry): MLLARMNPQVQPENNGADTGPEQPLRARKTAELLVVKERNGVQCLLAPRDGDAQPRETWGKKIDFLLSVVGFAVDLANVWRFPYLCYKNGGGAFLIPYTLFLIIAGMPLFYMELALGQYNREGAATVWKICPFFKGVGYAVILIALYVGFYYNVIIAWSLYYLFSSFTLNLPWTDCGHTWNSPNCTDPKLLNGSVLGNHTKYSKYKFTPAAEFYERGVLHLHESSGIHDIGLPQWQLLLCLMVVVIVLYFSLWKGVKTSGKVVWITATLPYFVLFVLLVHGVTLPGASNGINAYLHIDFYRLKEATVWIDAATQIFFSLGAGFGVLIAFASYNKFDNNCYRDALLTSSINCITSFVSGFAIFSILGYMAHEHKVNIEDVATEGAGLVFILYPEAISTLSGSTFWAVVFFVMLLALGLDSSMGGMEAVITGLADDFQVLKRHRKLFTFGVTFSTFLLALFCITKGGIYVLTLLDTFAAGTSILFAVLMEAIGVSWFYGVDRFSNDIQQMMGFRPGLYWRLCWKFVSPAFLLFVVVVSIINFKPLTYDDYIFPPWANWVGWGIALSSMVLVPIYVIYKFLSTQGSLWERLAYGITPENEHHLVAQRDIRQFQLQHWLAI

[7] = target: 5-hydroxytryptamine receptor 2B (Homo sapiens, UniProt P41595); assay type: functional, cell-based
Sequence of 5-hydroxytryptamine receptor 2B (P41595 whole entry): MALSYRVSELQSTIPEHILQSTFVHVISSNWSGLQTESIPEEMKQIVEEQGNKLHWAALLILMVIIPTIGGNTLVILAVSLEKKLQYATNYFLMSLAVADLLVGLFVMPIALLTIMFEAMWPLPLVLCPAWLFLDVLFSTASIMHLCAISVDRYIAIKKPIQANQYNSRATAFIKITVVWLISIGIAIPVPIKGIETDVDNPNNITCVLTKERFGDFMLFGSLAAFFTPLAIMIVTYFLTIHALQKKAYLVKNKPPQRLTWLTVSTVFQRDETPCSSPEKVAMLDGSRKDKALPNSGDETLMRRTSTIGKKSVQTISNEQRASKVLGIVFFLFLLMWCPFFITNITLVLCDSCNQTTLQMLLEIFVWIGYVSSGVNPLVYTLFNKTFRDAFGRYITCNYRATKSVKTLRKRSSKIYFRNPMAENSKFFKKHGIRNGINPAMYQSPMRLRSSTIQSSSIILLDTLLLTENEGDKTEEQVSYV

[8] = target: Neuronal acetylcholine receptor subunit alpha-4 (Homo sapiens, UniProt P43681)
Sequence of Neuronal acetylcholine receptor subunit alpha-4 (P43681 whole entry): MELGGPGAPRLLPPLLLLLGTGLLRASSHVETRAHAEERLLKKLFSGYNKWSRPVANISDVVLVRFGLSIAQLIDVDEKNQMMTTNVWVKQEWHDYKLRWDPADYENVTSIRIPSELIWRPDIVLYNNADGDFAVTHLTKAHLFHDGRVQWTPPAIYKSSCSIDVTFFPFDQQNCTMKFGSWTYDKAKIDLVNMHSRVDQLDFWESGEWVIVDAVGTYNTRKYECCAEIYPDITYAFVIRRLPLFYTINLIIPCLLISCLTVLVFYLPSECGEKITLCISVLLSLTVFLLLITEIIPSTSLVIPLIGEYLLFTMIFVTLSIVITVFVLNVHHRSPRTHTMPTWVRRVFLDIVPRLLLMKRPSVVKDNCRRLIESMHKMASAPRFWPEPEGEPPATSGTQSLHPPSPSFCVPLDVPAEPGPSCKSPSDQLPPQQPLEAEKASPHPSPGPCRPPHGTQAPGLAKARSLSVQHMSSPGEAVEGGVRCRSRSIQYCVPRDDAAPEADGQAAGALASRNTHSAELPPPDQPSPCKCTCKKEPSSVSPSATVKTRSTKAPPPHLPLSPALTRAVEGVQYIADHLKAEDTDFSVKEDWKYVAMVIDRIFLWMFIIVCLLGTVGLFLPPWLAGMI

[9] = target: Gamma-aminobutyric acid receptor subunit alpha-1 (Rattus norvegicus, UniProt P62813)
Sequence of Gamma-aminobutyric acid receptor subunit alpha-1 (P62813 whole entry): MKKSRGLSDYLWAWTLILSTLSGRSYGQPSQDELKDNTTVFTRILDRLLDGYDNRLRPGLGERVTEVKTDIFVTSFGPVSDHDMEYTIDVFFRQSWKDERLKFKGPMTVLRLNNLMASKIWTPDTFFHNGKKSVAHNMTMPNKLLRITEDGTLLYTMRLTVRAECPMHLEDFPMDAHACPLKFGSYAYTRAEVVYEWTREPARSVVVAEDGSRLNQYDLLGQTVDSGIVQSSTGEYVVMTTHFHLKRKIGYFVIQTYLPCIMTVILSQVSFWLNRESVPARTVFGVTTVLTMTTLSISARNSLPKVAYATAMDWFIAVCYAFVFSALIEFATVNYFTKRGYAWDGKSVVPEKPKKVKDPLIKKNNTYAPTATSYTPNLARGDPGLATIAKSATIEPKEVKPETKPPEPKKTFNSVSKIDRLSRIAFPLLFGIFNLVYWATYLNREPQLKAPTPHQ

[10] = target: Delta-type opioid receptor (Homo sapiens, UniProt P41143)
Sequence of Delta-type opioid receptor (P41143 whole entry): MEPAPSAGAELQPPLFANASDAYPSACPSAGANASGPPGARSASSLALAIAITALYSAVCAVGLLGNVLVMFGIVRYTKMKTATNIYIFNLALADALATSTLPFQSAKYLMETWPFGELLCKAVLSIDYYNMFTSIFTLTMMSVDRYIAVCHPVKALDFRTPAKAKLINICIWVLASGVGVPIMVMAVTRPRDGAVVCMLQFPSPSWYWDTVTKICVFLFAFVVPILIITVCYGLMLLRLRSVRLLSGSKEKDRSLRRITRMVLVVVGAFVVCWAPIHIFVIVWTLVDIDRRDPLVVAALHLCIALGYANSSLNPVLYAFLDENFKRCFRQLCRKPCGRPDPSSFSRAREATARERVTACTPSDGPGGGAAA

[11] = target: T4, Progesterone receptor (Homo sapiens, UniProt P06401); assay type: functional
T4 sequence (P06401 whole entry): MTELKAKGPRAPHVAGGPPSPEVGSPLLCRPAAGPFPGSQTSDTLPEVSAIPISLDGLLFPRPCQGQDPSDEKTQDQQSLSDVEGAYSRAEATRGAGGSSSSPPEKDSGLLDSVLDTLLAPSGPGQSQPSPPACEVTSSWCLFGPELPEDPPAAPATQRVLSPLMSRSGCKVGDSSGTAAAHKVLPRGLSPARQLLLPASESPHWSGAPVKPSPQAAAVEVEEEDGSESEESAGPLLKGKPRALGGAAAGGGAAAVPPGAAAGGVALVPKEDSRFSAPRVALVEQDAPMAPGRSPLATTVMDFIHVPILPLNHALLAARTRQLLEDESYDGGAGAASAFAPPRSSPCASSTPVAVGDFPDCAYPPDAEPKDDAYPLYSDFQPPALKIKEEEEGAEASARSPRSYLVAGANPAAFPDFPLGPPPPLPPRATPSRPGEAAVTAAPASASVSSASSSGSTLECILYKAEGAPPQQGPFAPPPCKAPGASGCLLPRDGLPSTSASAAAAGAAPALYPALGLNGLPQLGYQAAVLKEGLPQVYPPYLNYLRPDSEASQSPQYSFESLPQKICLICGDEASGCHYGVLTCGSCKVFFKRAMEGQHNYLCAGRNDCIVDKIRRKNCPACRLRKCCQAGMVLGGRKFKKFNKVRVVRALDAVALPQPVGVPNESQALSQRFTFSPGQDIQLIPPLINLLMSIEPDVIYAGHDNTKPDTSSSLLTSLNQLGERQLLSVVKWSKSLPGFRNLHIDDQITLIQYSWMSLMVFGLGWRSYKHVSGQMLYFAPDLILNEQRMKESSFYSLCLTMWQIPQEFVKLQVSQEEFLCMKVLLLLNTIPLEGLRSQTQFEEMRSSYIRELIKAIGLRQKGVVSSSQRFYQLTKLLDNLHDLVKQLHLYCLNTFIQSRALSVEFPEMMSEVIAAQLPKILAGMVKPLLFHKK
Also: assay procedure not described here.

| SMILES | AC50 [1] | AC50 [2] | AC50 [3] | AC50 [4] | AC50 [5] | AC50 [6] | AC50 [7] | AC50 [8] | AC50 [9] | AC50 [10] | AC50 [11] |
| --- | --- | --- | --- | --- | --- | --- | --- | --- | --- | --- | --- |
| Cc1nnc2n1-c1ccc(Cl)cc1C(c1ccccc1Cl)=NC2 [TRIAZOLAM] | > 30 µM | > 10 µM | > 30 µM | > 30 µM | > 30 µM | > 30 µM | > 10 µM | > 10 µM | > 10 µM | > 30 µM | – |
| COc1ccc(CCNCC(O)COc2cccc(C)c2)cc1OC (configuration not stated) [BEVANTOLOL] | > 10 µM | > 10 µM | 12 µM | > 10 µM | > 10 µM | > 30 µM | 14 µM | > 10 µM | > 10 µM | > 30 µM | > 10 µM |
| CC1(C)CCC(CN2CCN(c3ccc(C(=O)NS(=O)(=O)c4ccc(NCC5CCOCC5)c([N+](=O)[O-])c4)c(Oc4cnc5[nH]ccc5c4)c3)CC2)=C(c2ccc(Cl)cc2)C1 [VENETOCLAX] | – | – | – | > 30 µM | – | 11 µM | – | – | – | > 30 µM | > 30 µM |
| O=C1C(O)=C([C@H]2CC[C@H](c3ccc(Cl)cc3)CC2)C(=O)c2ccccc21 [ATOVAQUONE] | > 30 µM | > 30 µM | > 30 µM | > 30 µM | > 30 µM | > 30 µM | > 30 µM | > 30 µM | > 30 µM | > 30 µM | > 30 µM |
| COc1ccc2c3c1O[C@H]1[C@@H](O)CC[C@H]4[C@@H](C2)N(C)CC[C@@]341 [DIHYDROCODEINE] | – | > 30 µM | > 30 µM | – | – | – | > 30 µM | – | > 30 µM | > 30 µM | – |
| Fc1ccc(C(c2ccccc2)(c2ccccc2F)n2ccnc2)cc1 (configuration not stated) [FLUTRIMAZOLE] | > 30 µM | > 30 µM | > 30 µM | > 30 µM | > 30 µM | > 30 µM | > 30 µM | > 30 µM | > 30 µM | > 30 µM | > 30 µM |
| CC/C(=C(\c1ccccc1)c1ccc(OCCN(C)C)cc1)c1ccccc1 [TAMOXIFEN] | – | > 10 µM | > 30 µM | – | – | 8.83 µM | > 10 µM | > 30 µM | > 10 µM | > 30 µM | – |
| C[C@H]1COc2c(C3(N)CC3)c(F)cc3c(=O)c(C(=O)O)cn1c23 [PAZUFLOXACIN] | > 10 µM | > 10 µM | – | > 10 µM | > 10 µM | > 10 µM | > 10 µM | > 10 µM | > 10 µM | > 30 µM | – |
| CC(CC1c2ccccc2CCc2ccccc21)CN(C)C (configuration not stated) [BUTRIPTYLINE] | – | > 30 µM | 15 µM | – | – | – | > 30 µM | – | > 30 µM | – | – |
| NC(=O)OCC(COC(N)=O)c1ccccc1 [FELBAMATE] | > 10 µM | > 10 µM | – | > 10 µM | > 10 µM | > 10 µM | > 10 µM | > 10 µM | > 10 µM | > 30 µM | > 10 µM |
| NC(=O)CN1CC(O)CC1=O (configuration not stated) [OXIRACETAM] | > 30 µM | > 30 µM | > 30 µM | > 30 µM | > 30 µM | > 30 µM | > 30 µM | > 30 µM | > 30 µM | > 30 µM | > 30 µM |
| Brc1c(NC2=NCCN2)ccc2nccnc12 [BRIMONIDINE] | > 30 µM | > 30 µM | – | > 30 µM | > 30 µM | > 30 µM | > 30 µM | > 30 µM | > 30 µM | > 30 µM | > 30 µM |
| Nc1nc(Cl)nc2c1ncn2[C@H]1C[C@H](O)[C@@H](CO)O1 [CLADRIBINE] | > 30 µM | > 30 µM | > 30 µM | > 30 µM | > 30 µM | > 30 µM | > 30 µM | > 30 µM | > 30 µM | > 30 µM | > 30 µM |
| Cc1cc(C(C)(C)C)c(O)c(C)c1CC1=NCCN1 [OXYMETAZOLINE] | – | > 30 µM | – | > 30 µM | – | > 30 µM | – | – | – | > 30 µM | > 30 µM |
| Clc1ccccc1C(c1ccccc1)(c1ccccc1)n1ccnc1 [CLOTRIMAZOLE] | – | > 10 µM | > 30 µM | – | – | 19.9 µM | > 10 µM | > 10 µM | > 10 µM | > 30 µM | – |
| C[C@@H]1O[C@@H](O[C@@H]2C=C3CC[C@@H]4[C@H](CC[C@]5(C)[C@@H](c6ccc(=O)oc6)CC[C@]45O)[C@@]3(C)CC2)[C@H](O)[C@H](O)[C@H]1O [PROSCILLARIDIN] | > 30 µM | > 30 µM | > 30 µM | > 30 µM | > 30 µM | > 30 µM | > 30 µM | > 30 µM | > 30 µM | > 30 µM | > 30 µM |
| COc1cccc(C2(O)CCCCC2CN(C)C)c1 (configuration not stated) [TRAMADOL] | > 30 µM | > 10 µM | > 30 µM | > 30 µM | > 30 µM | > 10 µM | > 10 µM | – | > 10 µM | > 30 µM | – |
| Cc1c(OCC(F)(F)F)ccnc1C[S+]([O-])c1nc2ccccc2[nH]1 (configuration not stated) [LANSOPRAZOLE] | 16.8 µM | > 10 µM | > 30 µM | > 30 µM | 24.5 µM | > 10 µM | > 10 µM | – | > 10 µM | 8.3 µM | – |
| C#C[C@]1(O)CC[C@H]2[C@@H]3[C@H](C)CC4=C(CCC(=O)C4)[C@H]3CC[C@@]21C [TIBOLONE] | > 30 µM | > 30 µM | > 30 µM | > 30 µM | > 30 µM | > 30 µM | > 30 µM | > 30 µM | > 30 µM | > 30 µM | 0.4 µM |
| CC(C)(C)NCC(O)COc1cccc2c1CCC(=O)N2 (configuration not stated) [CARTEOLOL] | > 10 µM | > 10 µM | > 30 µM | > 10 µM | > 10 µM | > 10 µM | > 10 µM | > 10 µM | > 10 µM | > 30 µM | > 10 µM |
